In ChEMBL document CHEMBL3431459, “Roche carnitine palmitoyltransferase modulator screening data (supplementary data associated with the publication CHEMBL2216752)”:
Converted amounts (≈) assume the structure as drawn.

Legend:
[1] = target: T1, Carnitine O-palmitoyltransferase 1, muscle isoform (Homo sapiens, UniProt Q92523); experiment: SUPPLEMENTARY: Inhibition of Carnitine palmitoyltransferase 1, muscle isoform; parameters: species or system Muscle tissue
T1 sequence (Q92523 whole entry): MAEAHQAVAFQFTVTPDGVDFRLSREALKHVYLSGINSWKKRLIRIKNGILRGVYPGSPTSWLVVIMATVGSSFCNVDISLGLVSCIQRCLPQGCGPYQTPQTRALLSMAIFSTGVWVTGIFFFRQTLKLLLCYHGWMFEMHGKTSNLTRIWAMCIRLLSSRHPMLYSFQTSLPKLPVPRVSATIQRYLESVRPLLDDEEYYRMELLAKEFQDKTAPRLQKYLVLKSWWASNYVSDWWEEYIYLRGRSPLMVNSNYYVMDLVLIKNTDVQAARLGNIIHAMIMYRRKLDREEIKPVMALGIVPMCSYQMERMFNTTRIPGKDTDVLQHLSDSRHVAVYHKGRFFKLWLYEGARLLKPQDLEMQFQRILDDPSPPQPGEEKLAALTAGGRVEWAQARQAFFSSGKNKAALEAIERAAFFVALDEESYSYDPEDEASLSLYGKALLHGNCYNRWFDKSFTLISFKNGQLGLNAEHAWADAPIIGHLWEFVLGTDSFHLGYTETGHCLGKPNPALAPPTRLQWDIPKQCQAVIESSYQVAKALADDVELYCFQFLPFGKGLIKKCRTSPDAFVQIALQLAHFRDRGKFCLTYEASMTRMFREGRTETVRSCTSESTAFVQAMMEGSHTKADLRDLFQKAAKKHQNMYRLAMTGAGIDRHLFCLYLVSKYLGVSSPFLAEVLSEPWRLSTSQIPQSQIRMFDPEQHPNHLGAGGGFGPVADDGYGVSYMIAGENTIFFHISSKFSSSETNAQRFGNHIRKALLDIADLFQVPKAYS

[2] = target: T2, Carnitine O-palmitoyltransferase 2, mitochondrial (Homo sapiens, UniProt P23786); experiment: (§1) SUPPLEMENTARY: Inhibition of Carnitine palmitoyltransferase 2
T2 sequence (P23786 whole entry): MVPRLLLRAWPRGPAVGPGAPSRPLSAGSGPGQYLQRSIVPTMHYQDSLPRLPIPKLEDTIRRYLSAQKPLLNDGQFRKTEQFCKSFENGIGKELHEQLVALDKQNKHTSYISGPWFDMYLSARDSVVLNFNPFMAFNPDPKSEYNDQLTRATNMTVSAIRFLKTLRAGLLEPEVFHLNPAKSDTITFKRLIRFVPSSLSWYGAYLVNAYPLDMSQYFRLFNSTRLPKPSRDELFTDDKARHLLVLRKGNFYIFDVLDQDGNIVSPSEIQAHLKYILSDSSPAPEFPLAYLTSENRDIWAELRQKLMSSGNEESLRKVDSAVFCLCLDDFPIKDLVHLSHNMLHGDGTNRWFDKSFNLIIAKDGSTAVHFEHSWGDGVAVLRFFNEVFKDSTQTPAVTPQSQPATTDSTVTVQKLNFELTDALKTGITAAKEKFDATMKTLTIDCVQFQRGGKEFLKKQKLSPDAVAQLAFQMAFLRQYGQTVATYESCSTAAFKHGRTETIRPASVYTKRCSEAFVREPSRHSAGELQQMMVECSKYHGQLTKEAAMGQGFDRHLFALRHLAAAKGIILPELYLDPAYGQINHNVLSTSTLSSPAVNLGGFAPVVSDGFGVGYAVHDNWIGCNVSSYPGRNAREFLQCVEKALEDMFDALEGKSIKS

[3] = target: T3, Carnitine O-palmitoyltransferase 2, mitochondrial (Rattus norvegicus, UniProt P18886); experiment: as §1
T3 sequence (P18886 whole entry): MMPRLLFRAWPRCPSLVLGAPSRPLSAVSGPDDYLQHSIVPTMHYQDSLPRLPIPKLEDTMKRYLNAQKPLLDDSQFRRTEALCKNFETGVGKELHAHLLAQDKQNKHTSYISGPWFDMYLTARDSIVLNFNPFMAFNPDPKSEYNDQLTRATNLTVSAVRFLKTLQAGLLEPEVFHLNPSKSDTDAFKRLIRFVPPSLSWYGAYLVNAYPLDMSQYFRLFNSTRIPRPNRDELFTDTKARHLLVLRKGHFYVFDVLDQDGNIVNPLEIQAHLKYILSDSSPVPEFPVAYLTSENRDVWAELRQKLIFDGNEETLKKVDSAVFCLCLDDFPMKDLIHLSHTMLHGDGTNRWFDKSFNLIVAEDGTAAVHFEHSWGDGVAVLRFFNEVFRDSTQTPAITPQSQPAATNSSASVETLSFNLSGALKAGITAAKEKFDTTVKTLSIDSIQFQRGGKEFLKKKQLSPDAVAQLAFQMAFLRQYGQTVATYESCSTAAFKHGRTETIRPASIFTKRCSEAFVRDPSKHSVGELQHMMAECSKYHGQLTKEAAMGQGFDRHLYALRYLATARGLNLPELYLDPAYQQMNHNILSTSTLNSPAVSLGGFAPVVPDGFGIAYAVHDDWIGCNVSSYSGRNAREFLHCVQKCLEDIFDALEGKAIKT

[4] = target: T4, Carnitine O-palmitoyltransferase 1, liver isoform (Homo sapiens, UniProt P50416); experiment: (§2) SUPPLEMENTARY: Inhibition of Carnitine palmitoyltransferase 1, liver isoform
T4 sequence (P50416 whole entry): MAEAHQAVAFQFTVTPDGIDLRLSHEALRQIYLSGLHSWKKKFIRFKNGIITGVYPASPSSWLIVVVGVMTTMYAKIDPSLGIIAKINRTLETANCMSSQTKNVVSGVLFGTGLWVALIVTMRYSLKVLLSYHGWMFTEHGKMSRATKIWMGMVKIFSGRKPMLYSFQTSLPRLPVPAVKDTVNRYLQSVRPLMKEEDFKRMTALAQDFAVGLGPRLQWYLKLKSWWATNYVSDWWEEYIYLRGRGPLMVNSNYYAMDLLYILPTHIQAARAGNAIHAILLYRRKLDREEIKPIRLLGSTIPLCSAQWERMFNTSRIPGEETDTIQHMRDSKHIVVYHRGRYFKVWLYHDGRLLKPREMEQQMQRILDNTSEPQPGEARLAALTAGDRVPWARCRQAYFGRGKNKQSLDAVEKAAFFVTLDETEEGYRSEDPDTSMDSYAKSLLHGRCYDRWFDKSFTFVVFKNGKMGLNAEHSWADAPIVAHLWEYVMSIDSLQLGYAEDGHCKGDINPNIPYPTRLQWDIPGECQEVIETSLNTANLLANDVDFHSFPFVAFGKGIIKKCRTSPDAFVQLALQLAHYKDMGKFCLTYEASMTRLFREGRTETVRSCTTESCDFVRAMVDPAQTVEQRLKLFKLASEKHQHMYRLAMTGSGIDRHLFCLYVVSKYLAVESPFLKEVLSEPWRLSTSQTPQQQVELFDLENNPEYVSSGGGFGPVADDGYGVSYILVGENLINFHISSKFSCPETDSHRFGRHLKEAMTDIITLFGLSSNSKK

[5] = target: T5, Carnitine O-palmitoyltransferase 1, liver isoform (Rattus norvegicus, UniProt P32198); experiment: as §2
T5 sequence (P32198 whole entry): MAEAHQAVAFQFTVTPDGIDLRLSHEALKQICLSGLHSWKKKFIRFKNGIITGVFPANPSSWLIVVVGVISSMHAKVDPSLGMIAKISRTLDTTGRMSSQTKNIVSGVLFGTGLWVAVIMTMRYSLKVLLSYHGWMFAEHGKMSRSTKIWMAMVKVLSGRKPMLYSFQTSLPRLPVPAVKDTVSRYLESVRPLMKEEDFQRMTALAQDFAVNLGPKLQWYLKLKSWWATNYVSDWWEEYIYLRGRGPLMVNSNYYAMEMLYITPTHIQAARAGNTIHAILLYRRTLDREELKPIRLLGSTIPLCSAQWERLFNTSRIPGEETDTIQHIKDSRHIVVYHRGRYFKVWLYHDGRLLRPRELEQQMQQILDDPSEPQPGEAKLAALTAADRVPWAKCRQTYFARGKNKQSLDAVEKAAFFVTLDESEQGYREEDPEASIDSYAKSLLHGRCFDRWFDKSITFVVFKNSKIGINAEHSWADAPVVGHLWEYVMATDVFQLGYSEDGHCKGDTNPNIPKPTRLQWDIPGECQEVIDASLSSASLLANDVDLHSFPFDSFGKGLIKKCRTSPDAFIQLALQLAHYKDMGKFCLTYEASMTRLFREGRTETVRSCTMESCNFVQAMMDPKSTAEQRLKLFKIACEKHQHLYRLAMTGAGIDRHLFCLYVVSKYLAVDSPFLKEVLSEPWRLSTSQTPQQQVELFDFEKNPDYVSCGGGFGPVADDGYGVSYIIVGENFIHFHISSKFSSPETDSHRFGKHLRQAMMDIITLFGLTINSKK

[6] = SUPPLEMENTARY: Lyophilisation Solubility Assay (LYSA); type: physicochemical; conditions: read-out: Kinetic_solubility
[7] = SUPPLEMENTARY: Lipophilicity (log D) Determination by high-throughput shake-flask; type: physicochemical; conditions: octanol/water
[8] = SUPPLEMENTARY: PAMPA permeability assay; type: physicochemical; conditions: read-out: Permeability

| Structure (SMILES) | IC50 [1] [nM] | IC50 [2] [nM] | IC50 [3] [nM] | IC50 [4] [nM] | IC50 [5] [nM] | solubility kinetic [6] [µg/mL] | logD [7] | Papp [8] [×10⁻⁶ cm/s] |
| --- | --- | --- | --- | --- | --- | --- | --- | --- |
| O=C(O)c1ccc(C(=O)Nc2nn(Cc3ccc(OC(F)F)cc3)c3ccc(F)cc23)cc1 | 628 | > 100000 | > 100000 | 156 | 514 | 70 (≈ 154 µM) | 0.92 | 3.15 |
| O=C(COc1ccccc1)N1CCCC[C@@H]1c1noc(-c2ccc(Cl)nc2)n1 | > 100000 | 38200 | > 100000 | 154 | 254 | 32 (≈ 80.2 µM) | 2.98 | 5.17 |
| NC(=O)c1cn2ccc(-c3noc([C@H]4CCCCN4C(=O)COc4ccccc4)n3)cc2n1 | > 100000 | 12100 | 18300 | 96.4 | 663 | 10 (≈ 22.4 µM) | 2.79 | 5.55 |
| COc1ccc(Cl)cc1S(=O)(=O)N1CCOc2ccc(C(=O)Nc3ccc(C(=O)O)c(Cl)c3)cc21 | 3580 | 5130 | 21000 | 248 | 100 | > 716 | 0.12 | 1.45 |
| COc1ccc(Cl)cc1S(=O)(=O)c1nn(C)c2ccc(C(=O)Nc3ccc(CC(=O)O)cc3)cc12 | 1730 | > 100000 | > 100000 | 166 | 125 | 70 (≈ 136 µM) | 0.12 | 0.39 |
| O=C1Cc2cc(-c3noc([C@H]4CCCCN4C(=O)COc4ccccc4)n3)ccc2N1 | 27600 | 42900 | 53500 | 13.2 | 70.8 | 14.5 (≈ 34.7 µM) | 2.93 | 2.61 |
| Cc1cc(C)cc(S(=O)(=O)N2CCc3ccc(C(=O)Nc4ccc(CC(=O)O)cc4)cc32)c1 | 6790 | > 100000 | > 100000 | 187 | 133 | 5 (≈ 10.8 µM) | 2.42 | 4.05 |
| COc1ccc(Cl)cc1S(=O)(=O)N1CCCc2ccc(C(=O)Nc3ccc(C(=O)O)c(F)c3)cc21 | 3020 | 2800 | 10200 | 38.1 | 47.7 | 182 (≈ 351 µM) | 0.55 | 1.77 |
| CCNC(=O)Nc1cccc(-c2n[nH]c([C@H]3CCCCN3C(=O)COc3ccccc3)n2)c1 | 97000 | 57500 | 62900 | 52.3 | 811 | 69 (≈ 154 µM) | 2.84 | 2.23 |
| O=C(COc1ccccc1)N1CCCC[C@@H]1c1nc(-c2cccs2)n[nH]1 | > 100000 | 29300 | > 100000 | 108 | 565 | 101 (≈ 274 µM) | 2.96 | 2.69 |
| COc1ccc(Cl)cc1S(=O)(=O)N1CCOc2c(Cl)cc(C(=O)Nc3ccc(C(=O)O)cc3)cc21 | 2610 | 578 | 28200 | 77 | 49.4 | 1 (≈ 1.86 µM) | 3.15 | 2.19 |
| O=C(COc1ccccc1)N1CCCC[C@@H]1c1noc(-c2ccc3ncsc3c2)n1 | > 100000 | 18000 | > 100000 | 177 | 147 | 2 (≈ 4.76 µM) | 3.31 | 2.4 |
| O=C(COc1ccccc1)N1CCCC[C@@H]1c1noc(-c2cnc3ccccc3n2)n1 | > 100000 | > 100000 | > 100000 | 176 | 235 | 12 (≈ 28.9 µM) | 3.22 | 4.18 |
| O=C(O)c1ccc(NC(=O)c2ccc3ccn(S(=O)(=O)c4cccc(Cl)c4)c3c2)cc1 | 26500 | 2290 | 3280 | 16.7 | 9.7 | 1 (≈ 2.2 µM) | 2.99 | 0.6 |
| O=C(COc1ccccc1)N1CCCC[C@@H]1c1noc(-c2cc[nH]n2)n1 | > 100000 | > 100000 | > 100000 | 221 | 225 | 22 (≈ 62.3 µM) | 2.22 | 5.94 |
